Results taken from US20140094461A1, “BIOMARKERS FOR HEDGEHOG INHIBITOR THERAPY” (priority 2011, published 2014).

What was measured:
[1] = tested on: basal cell carcinoma (BCC); assay: Phase I dose escalation trial, adult BCC patients with PTCH or SMO mutations: clinical response; assay type: in vivo, human
Text: In addition to the Hedgehog-activated medulloblastoma, basal cell carcinoma (BCC) is another cancer type that is mostly driven by mutations or genetic lesions of the Hedgehog pathway genes that lead to constitutive activation of the Hedgehog pathway. […] In an ongoing phase I, dose escalation trial of methyl-4′-trifluoromethoxy-biphenyl-3-carboxylic acid [6-(cis-2,6-dimethyl-morpholin-4-yl)-pyridin-3-yl]-amide, an Hedgehog signaling inhibitor antagonizing SMO, adult BCC patients were enrolled among patients with other solid tumors. Mutational analysis of PTCH1 and SMO by directly sequencing was performed to the archival tumor specimens collected at the time of diagnosis from the enrolled BCC patients. […] The method of the invention was used to determine the Hedgehog activation status of BCC tumors from these patients. With both the 5-gene and 8-gene models, the probability score of all 6 cases were above the pre-specified cut-off and therefore all were called Hedgehog-activated. Among these 6 patients, 2 achieved confirmed partial response on methyl-4′-trifluoromethoxy-biphenyl-3-carboxylic acid [6-(cis-2,6-dimethyl-morpholin-4-yl)-pyridin-3-yl]-amide treatment, 2 had stable disease for more than 6 month, and the other 2 patients discontinued methyl-4′-trifluoromethoxy-biphenyl-3-carboxylic acid [6-(cis-2,6-dimethyl-morpholin-4-yl)-pyridin-3-yl]-amide due to adverse events after less than 2 months of therapy which might be too brief to observe any clinical activities. […] The method of the invention can be used for identifying other types of tumor with the same underlining Hedgehog-mutation driven etiology that might preferentially benefit from a Hedgehog signaling inhibitor therapy.

medulloblastoma = assay: Phase I dose escalation trial, adult medulloblastoma patients: clinical response; assay type: in vivo, human
Text: Adult cancer patients including patients with medulloblastoma, were enrolled into an ongoing phase I, dose escalation trial of methyl-4′-trifluoromethoxy-biphenyl-3-carboxylic acid [6-(cis-2,6-dimethyl-morpholin-4-yl)-pyridin-3-yl]-amide to evaluate safety and tolerability of methyl-4′-trifluoromethoxy-biphenyl-3-carboxylic acid [6-(cis-2,6-dimethyl-morpholin-4-yl)-pyridin-3-yl]-amide and assess maximally tolerated dose of methyl-4′-trifluoromethoxy-biphenyl-3-carboxylic acid [6-(cis-2,6-dimethyl-morpholin-4-yl)-pyridin-3-yl]-amide for adult patients. Archival FFPE tumor specimens collected prior to the start of the trial are available for analysis by the method of the invention from 3 enrolled medulloblastoma patients in this trial.
Based on the 8-gene and 5-gene predictive model, the method of the invention was used to determine the Hedgehog activation status in tumor for these 3 patients. The two responders were determined to have Hedgehog-activated tumor while the tumor from the non-responder was called non-Hedgehog-activated. In addition, the single genes, SPHK1, OTX2, SFRP1, PDLIM3, or SHROOM2 were each used to determine the Hedgehog activation status based on the pre-established cut-off for each of the genes. By each of the single gene, the same Hedgehog-activated and non-Hedgehog-activated calls were made to the two responders and one non-responder, respectively. Among the 3 patients, only one patient had adequate tumor tissue samples available for additional mutational analysis of the PTCH1 and SMO gene. […] Inactivating PTCH1 mutations have been identified as a major mechanism of constitutively activating Hedgehog pathway in medulloblastoma. Therefore, identification of this PTCH1 mutation provides a mechanistic basis for Hedgehog pathway activation and observed clinical activity against Hedgehog signaling inhibitor in this patient and further validates the finding by the method of the invention.

[2] = medulloblastoma patient 1, daily dose of 200 mg

For `Cc1c(C(=O)Nc2ccc(N3C[C@@H](C)O[C@@H](C)C3)nc2)cccc1-c1ccc(OC(F)(F)F)cc1` [methyl-4′-trifluoromethoxy-biphenyl-3-carboxylic acid [6-(cis-2,6-dimethyl-morpholin-4-yl)-pyridin-3-yl]-amide], the “number of patients with stable disease for more than 6 month” value ([1]; of 6 BCC patients with PTCH or SMO mutations) was 2 patients, the “number of patients with confirmed partial response” value ([1]; of 6 BCC patients with PTCH or SMO mutations, all called Hedgehog-activated) was 2 patients and the “number of patients who discontinued due to adverse events” value ([1]; of 6 BCC patients, after less than 2 months of therapy) was 2 patients. The “time of treatment until progression” value (medulloblastoma; 3rd medulloblastoma patient, daily dose of 200 mg) was 52 days, the clinical outcome (medulloblastoma; 3rd medulloblastoma patient, daily dose of 200 mg, non-Hedgehog-activated tumor) was “progressed rapidly” and the “duration of response before disease progression” value (medulloblastoma; [2]) was 4 months. For the same compound, the “time of treatment until partial response” value (medulloblastoma; [2]) was 2 months, the “tumor response by the RECIST criteria” value (medulloblastoma; medulloblastoma patient 1, daily dose of 200 mg, Hedgehog-activated tumor) was “partial response (PR)” and the “response measured by positron emission tomography (PET)” value (medulloblastoma; metastatic medulloblastoma patient without measurable lesion, 1500 mg daily dose, Hedgehog-activated tumor, PTCH1 mutation) was “metabolic partial response”. For the same compound, the “duration of metabolic partial response before disease relapse” value (medulloblastoma; metastatic medulloblastoma patient, 1500 mg daily dose) was 7 months.
